The assay has as its target T1, LTD4 receptor (Cavia porcellus, UniProt Q2NNR5).
T1 construct: guinea-pig lung membranes; from tissue; host or cells: guinea-pig lung membranes
T1 sequence (Q2NNR5 1-340): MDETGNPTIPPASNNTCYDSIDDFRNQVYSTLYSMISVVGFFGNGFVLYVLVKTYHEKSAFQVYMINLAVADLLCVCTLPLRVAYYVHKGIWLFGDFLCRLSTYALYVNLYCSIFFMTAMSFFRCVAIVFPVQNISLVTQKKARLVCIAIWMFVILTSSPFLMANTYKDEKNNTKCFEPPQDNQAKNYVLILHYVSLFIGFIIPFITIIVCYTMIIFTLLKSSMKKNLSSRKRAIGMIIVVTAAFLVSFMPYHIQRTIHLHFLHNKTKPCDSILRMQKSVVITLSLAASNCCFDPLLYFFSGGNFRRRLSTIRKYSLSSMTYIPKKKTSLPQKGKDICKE
In words: [3H]LTD4 competition binding to guinea-pig lung membranes. To be noted: negative logarithm of molar concentration, read-out: pIC50 for [3H]LTD4 binding (converted). From the text:
It is of importance to investigate the receptor binding properties of leukotriene antagonists in relation to their inhibition of smooth muscle contraction. Receptor binding studies may be performed with guinea-pig lung membranes in a direct competition assay between a leukotriene antagonist and [^3 H]LTD4 for binding to the LTD4 receptor ^10,^11. […] These values indicate that the affinities of the compounds for the LTD4 receptor are very high, also in the presence of albumin.

[1] abbreviates: presence of 0.1% human serum albumin.

Where a name gives a salt, the structure may show the parent alone. Read-outs that look alike come from different tables or passages of the source.

On to `O=C(O)[C@H](O)[C@H](Nc1cccc(/C=C/c2ccc3ccc(Cl)cc3n2)c1)c1ccccc1` (relative stereo) [Example 6, E-(2R,3R;2S,3S)-N-3-[2-(7-chloroquinolyl)-2-ethenyl]-phenyl-3-phenyl isoserine, sodium salt], for which the IC50 is 2 nM (absence of human serum albumin) and 6.31 nM under setting [1].
Consider `O=C(O)[C@H](O)[C@H](Nc1cccc(/C=C/c2ccc3ccccc3n2)c1)c1ccccc1` (relative stereo) [Example 17, E-(2R,3R;2S,3S)-3-phenyl-N-3-[(2-quinolyl)-2-ethenyl]-phenyl isoserine, sodium salt], for which the IC50 runs as follows: (absence of human serum albumin) 2.51 nM; under setting [1], 20 nM.
